Data on 21 molecules can be found in US10344025B2, “GLS1 inhibitors for treating disease” (Board of Regents, The University of Texas System, priority 2014, dated 2019).

One experiment deals with A549 cells. The experiment in a line: Proliferation Assay (A549 viability, Cell Titer Fluor, 72 hours). In kind it is cell-based. To be noted: Homo sapiens, A549, 72 h. The essentials: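 A549 cells seeded at 1000 cells/well, rested 24 h, then exposed to compound in 0.5% DMSO for 72 h at 37 °C. Viability read by Cell Titer Fluor fluorescence; IC50 from four-parameter logistic fit.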

Experiment [1] has as its target purified recombinant human GAC (GLS1) (Homo sapiens (Human), UniProt O94925). Put plainly: GLS1 Enzymatic Activity Assay (dual-coupled enzymatic assay, resorufin/Amplex UltraRed readout).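 Also: glutamate from GAC coupled via glutamate oxidase and peroxidase to resorufin, read as fluorescence (ex 530, em 590 nm) kinetically or at 20 min, four-parameter logistic IC50 fit.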 The format is biochemical.

Bounds are passed on as bounds.

Sequence of purified recombinant human GAC (GLS1) (O94925 other isoform, or with tags, fused parts or gaps): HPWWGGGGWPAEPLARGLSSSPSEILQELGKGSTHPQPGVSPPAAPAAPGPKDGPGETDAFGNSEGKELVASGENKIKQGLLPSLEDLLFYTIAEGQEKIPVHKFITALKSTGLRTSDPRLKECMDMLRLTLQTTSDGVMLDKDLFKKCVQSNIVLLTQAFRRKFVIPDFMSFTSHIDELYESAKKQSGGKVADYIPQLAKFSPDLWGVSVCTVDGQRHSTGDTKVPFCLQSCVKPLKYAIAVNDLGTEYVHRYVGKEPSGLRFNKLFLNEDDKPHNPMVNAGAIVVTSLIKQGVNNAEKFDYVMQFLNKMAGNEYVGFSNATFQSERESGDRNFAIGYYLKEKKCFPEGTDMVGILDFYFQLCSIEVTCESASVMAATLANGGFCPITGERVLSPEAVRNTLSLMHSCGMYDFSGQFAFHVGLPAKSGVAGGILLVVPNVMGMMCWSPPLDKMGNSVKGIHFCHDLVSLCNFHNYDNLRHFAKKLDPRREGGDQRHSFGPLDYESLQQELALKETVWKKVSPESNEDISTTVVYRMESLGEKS

For the molecule `O=C(Cc1cc(OC(F)(F)F)ccc1F)Nc1cn(CCCCn2cc(C(=O)NCc3cc(C(F)(F)F)ccn3)nn2)nn1` [Example 413, 1-[4-(4-{2-[2-fluoro-5-(trifluoromethoxy)phenyl]acetamido}-1H-1,2,3-triazol-1-yl)butyl]-N-{[4-(trifluoromethyl)pyridin-2-yl]methyl}-1H-1,2,3-triazole-4-carboxamide], the EC50 (usually the midpoint of the concentration-response curve) with A549 cells was less than 0.1 µM. Also, the IC50 – broadly, the concentration that gives 50% inhibition – in experiment [1] is less than 0.1 µM.

In the experiment on A549 cells, `O=C(Cc1cccc(OC(F)(F)F)c1)Nc1cn(CCCCn2cc(C(=O)NCc3cc(C(F)(F)F)ccn3)nn2)nn1` [Example 414, 1-[4-(4-{2-[3-(trifluoromethoxy)phenyl]acetamido}-1H-1,2,3-triazol-1-yl)butyl]-N-{[4-(trifluoromethyl)pyridin-2-yl]methyl}-1H-1,2,3-triazole-4-carboxamide] gave a half-maximal effective concentration (EC50) of less than 0.1 µM. The IC50 in experiment [1] is less than 0.1 µM.

The molecule `O=C(Cc1cc(Cl)ccc1F)Nc1cn(CCCCn2cc(C(=O)NCc3cc(Cl)ccc3F)nn2)nn1` [Example 415, 1-(4-{4-[2-(5-chloro-2-fluorophenyl)acetamido]-1H-1,2,3-triazol-1-yl}butyl)-N-[(5-chloro-2-fluorophenyl)methyl]-1H-1,2,3-triazole-4-carboxamide] showed an EC50 in the experiment on A549 cells of less than 0.1 µM. Also, the IC50 in experiment [1] is less than 0.1 µM.

`O=C(Cc1cc(OC(F)(F)F)ccc1F)Nc1cn(CCC(F)Cn2cc(C(=O)NCc3cccc(OC(F)(F)F)c3)nn2)nn1` (stereo not drawn) [Example 416, 1-[2-fluoro-4-(4-{2-[2-fluoro-5-(trifluoromethoxy)phenyl]acetamido}-1H-1,2,3-triazol-1-yl)butyl]-N-{[3-(trifluoromethoxy)phenyl]methyl}-1H-1,2,3-triazole-4-carboxamide] came in with an EC50 with A549 cells of less than 0.1 µM. Also, the half-maximal inhibitory concentration (IC50) in experiment [1] is less than 0.1 µM.

Molecule `O=C(Cc1cc(OC(F)(F)F)ccc1F)Nc1cn(CCC(F)Cn2cc(C(=O)NCc3ncccc3F)nn2)nn1` (stereo not drawn) [Example 417, 1-[2-fluoro-4-(4-{2-[2-fluoro-5-(trifluoromethoxy)phenyl]acetamido}-1H-1,2,3-triazol-1-yl)butyl]-N-[(3-fluoropyridin-2-yl)methyl]-1H-1,2,3-triazole-4-carboxamide] displayed an EC50 with A549 cells of less than 0.1 µM. Further, the IC50 in experiment [1] is less than 0.1 µM.

For `O=C(Cc1cc(OC(F)(F)F)ccc1F)Nc1cn(CCC(F)Cn2cc(C(=O)NCc3cc(C(F)(F)F)ccn3)nn2)nn1` (stereo not drawn) [Example 418, 1-[2-fluoro-4-(4-{2-[2-fluoro-5-(trifluoromethoxy)phenyl]acetamido}-1H-1,2,3-triazol-1-yl)butyl]-N-{[4-(trifluoromethyl)pyridin-2-yl]methyl}-1H-1,2,3-triazole-4-carboxamide], the EC50 in the experiment with A549 cells was less than 0.1 µM. In addition, in experiment [1], the IC50 was less than 0.1 µM.

The molecule `O=C(Cc1ccccn1)Nc1cn(CCC(F)Cn2cc(C(=O)NCc3cc(OC(F)(F)F)ccc3F)nn2)nn1` (stereo not drawn) [Example 419, 1-(2-fluoro-4-{4-[2-(pyridin-2-yl)acetamido]-1H-1,2,3-triazol-1-yl}butyl)-N-{[2-fluoro-5-(trifluoromethoxy)phenyl]methyl}-1H-1,2,3-triazole-4-carboxamide] yielded an EC50 in the experiment on A549 cells of less than 0.1 µM. Also, the IC50 in experiment [1] is less than 0.1 µM.

In the case of `Cc1ccc(CNC(=O)c2cn(CC(F)CCc3nnc(C(=O)NCc4cccc(OC(F)(F)F)c4)s3)nn2)cn1` (stereo not drawn) [Example 420, 5-[3-fluoro-4-(4-{[(6-methylpyridin-3-yl)methyl]carbamoyl}-1H-1,2,3-triazol-1-yl)butyl]-N-{[3-(trifluoromethoxy)phenyl]methyl}-1,3,4-thiadiazole-2-carboxamide], the EC50 with A549 cells was 0.1 to 0.5 µM. Besides, the half-inhibitory concentration (IC50) in experiment [1] was less than 0.1 µM.

Molecule `O=C(NCc1ccc(C(F)(F)F)nc1)c1cn(CCC(F)Cn2cc(C(=O)NCc3cc(OC(F)(F)F)ccc3F)nn2)nn1` (stereo not drawn) [Example 421, 1-{2-fluoro-4-[4-({[6-(trifluoromethyl)pyridin-3-yl]methyl}carbamoyl)-1H-1,2,3-triazol-1-yl]butyl}-N-{[2-fluoro-5-(trifluoromethoxy)phenyl]methyl}-1H-1,2,3-triazole-4-carboxamide] registered a concentration giving a half-maximal response (EC50) in the experiment on A549 cells of less than 0.1 µM. The IC50 in experiment [1] was less than 0.1 µM.

In the case of `O=C(NCc1cccc(C(F)(F)F)n1)c1cn(CCC(F)Cn2cc(C(=O)NCc3cc(OC(F)(F)F)ccc3F)nn2)nn1` (stereo not drawn) [Example 422, 1-{2-fluoro-4-[4-({[6-(trifluoromethyl)pyridin-2-yl]methyl}carbamoyl)-1H-1,2,3-triazol-1-yl]butyl}-N-{[-fluoro-5-(trifluoromethoxy)phenyl]methyl}-1H-1,2,3-triazole-4-carboxamide], the EC50 with A549 cells was less than 0.1 µM. Also, the IC50 in experiment [1] was less than 0.1 µM.

Molecule `O=C(NCc1cc(OC(F)(F)F)ccc1F)c1cn(CCC(F)Cn2cc(C(=O)NCc3ccc(C(F)(F)F)cn3)nn2)nn1` (stereo not drawn) [Example 423, 1-{2-fluoro-4-[4-({[2-fluoro-5-(trifluoromethoxy)phenyl]methyl}carbamoyl)-1H-1,2,3-triazol-1-yl]butyl}-N-{[5-(trifluoromethyl)pyridin-2-yl]methyl}-1H-1,2,3-triazole-4-carboxamide] returned an EC50 in the experiment with A549 cells of less than 0.1 µM. The IC50 in experiment [1] was less than 0.1 µM.

In the case of `O=C(NCc1cc(OC(F)(F)F)ccc1F)c1cn(CCC(F)Cn2cc(C(=O)NCc3ccc(C(F)(F)F)nc3)nn2)nn1` (stereo not drawn) [Example 424, 1-{2-fluoro-4-[4-({[2-fluoro-5-(trifluoromethoxy)phenyl]methyl}carbamoyl)-1H-1,2,3-triazol-1-yl]butyl}-N-{[6-(trifluoromethyl)pyridin-3-yl]methyl}-1H-1,2,3-triazole-4-carboxamide], the EC50 with A549 cells is less than 0.1 µM. In addition, in experiment [1], the IC50 is less than 0.1 µM.

Molecule `O=C(NCc1cc(OC(F)(F)F)ccc1F)c1cn(CCC(F)Cn2cc(C(=O)NCc3cccc(C(F)(F)F)n3)nn2)nn1` (stereo not drawn) [Example 425, 1-{2-fluoro-4-[4-({[2-fluoro-5-(trifluoromethoxy)phenyl]methyl}carbamoyl)-1H-1,2,3-triazol-1-yl]butyl}-N-{[6-(trifluoromethyl)pyridin-2-yl]methyl}-1H-1,2,3-triazole-4-carboxamide] displayed an EC50 with A549 cells of less than 0.1 µM. In addition, the IC50 in experiment [1] was less than 0.1 µM.

As to `O=C(NCc1cc(OC(F)(F)F)ccc1F)c1cn(CCC(F)Cn2cc(C(=O)NCc3cc(C(F)(F)F)ccn3)nn2)nn1` (stereo not drawn) [Example 426, 1-{2-fluoro-4-[4-({[2-fluoro-5-(trifluoromethoxy)phenyl]methyl}carbamoyl)-1H-1,2,3-triazol-1-yl]butyl}-N-{[4-(trifluoromethyl)pyridin-2-yl]methyl}-1H-1,2,3-triazole-4-carboxamide], the EC50 in the experiment with A549 cells is less than 0.1 µM. Moreover, the IC50 in experiment [1] was less than 0.1 µM.

Molecule `O=C(NCc1cc(OC(F)(F)F)ccc1F)c1cn(CCC(F)Cn2cc(C(=O)NCc3ncccc3F)nn2)nn1` (stereo not drawn) [Example 427, 1-{2-fluoro-4-[4-({[2-fluoro-5-(trifluoromethoxy)phenyl]methyl}carbamoyl)-1H-1,2,3-triazol-1-yl]butyl}-N-[(3-fluoropyridin-2-yl)methyl]-1H-1,2,3-triazole-4-carboxamide] returned an EC50 in the experiment with A549 cells of less than 0.1 µM. In experiment [1], the IC50 was less than 0.1 µM.

With `O=C(NCc1cccc(OC(F)(F)F)c1)c1cn(CCC(F)Cn2cc(C(=O)NCc3cc(C(F)(F)F)ccn3)nn2)nn1` (stereo not drawn) [Example 428, 1-{2-fluoro-4-[4-({[3-(trifluoromethoxy)phenyl]methyl}carbamoyl)-1H-1,2,3-triazol-1-yl]butyl}-N-{[4-(trifluoromethyl)pyridin-2-yl]methyl}-1H-1,2,3-triazole-4-carboxamide], the EC50 in the experiment on A549 cells was less than 0.1 µM. Moreover, the IC50 in experiment [1] was less than 0.1 µM.

`O=C(NCc1cccc(OC(F)(F)F)c1)c1cn(CCC(F)Cn2cc(C(=O)NCc3ncccc3F)nn2)nn1` (stereo not drawn) [Example 429, 1-{2-fluoro-4-[4-({[3-(trifluoromethoxy)phenyl]methyl}carbamoyl)-1H-1,2,3-triazol-1-yl]butyl}-N-[(3-fluoropyridin-2-yl)methyl]-1H-1,2,3-triazole-4-carboxamide] registered an EC50 in the experiment with A549 cells of 0.1 to 0.5 µM. Further, the IC50 in experiment [1] was less than 0.1 µM.

As to `Cc1ccc(CNC(=O)c2cn(CC(F)CCn3cc(C(=O)NCc4cccc(OC(F)(F)F)c4)nn3)nn2)cn1` (stereo not drawn) [Example 430, 1-{2-fluoro-4-[4-({[3-(trifluoromethoxy)phenyl]methyl}carbamoyl)-1H-1,2,3-triazol-1-yl]butyl}-N-[(6-methylpyridin-3-yl)methyl]-1H-1,2,3-triazole-4-carboxamide], the EC50 with A549 cells is less than 0.1 µM. For the same molecule, the IC50 in experiment [1] was less than 0.1 µM.

For the molecule `O=C(NCc1cccc(OC(F)(F)F)c1)c1cn(CCC(F)Cn2cc(C(=O)NCc3ccc(C(F)(F)F)cn3)nn2)nn1` (stereo not drawn) [Example 431, 1-{2-fluoro-4-[4-({[3-(trifluoromethoxy)phenyl]methyl}carbamoyl)-1H-1,2,3-triazol-1-yl]butyl}-N-{[5-(trifluoromethyl)pyridin-2-yl]methyl}-1H-1,2,3-triazole-4-carboxamide], in the experiment with A549 cells, the EC50 is less than 0.1 µM. Moreover, in experiment [1], the IC50 was less than 0.1 µM.

As for `O=C(NCc1cc(C(F)(F)F)ccn1)c1cn(CCC(F)Cn2cc(C(=O)NCc3cc(OC(F)(F)F)ccc3F)nn2)nn1` (stereo not drawn) [Example 432, 1-{2-fluoro-4-[4-({[4-(trifluoromethyl)pyridin-2-yl]methyl}carbamoyl)-1H-1,2,3-triazol-1-yl]butyl}-N-{[-fluoro-5-(trifluoromethoxy)phenyl]methyl}-1H-1,2,3-triazole-4-carboxamide], the EC50 in the experiment on A549 cells is less than 0.1 µM. In addition, the IC50 in experiment [1] is less than 0.1 µM.

Regarding `O=C(NCc1ccc(C(F)(F)F)cn1)c1cn(CCC(F)Cn2cc(C(=O)NCc3cccc(OC(F)(F)F)c3)nn2)nn1` (stereo not drawn) [Example 433, 1-{2-fluoro-4-[4-({[5-(trifluoromethyl)pyridin-2-yl]methyl}carbamoyl)-1H-1,2,3-triazol-1-yl]butyl}-N-{[3-(trifluoromethoxy)phenyl]methyl}-1H-1,2,3-triazole-4-carboxamide], the EC50 in the experiment on A549 cells is less than 0.1 µM. For the same molecule, the half-inhibitory concentration (IC50) in experiment [1] is less than 0.1 µM.
